Measurements as given in patent US20090264384A1, “INDOLE, BENZIMIDAZOLE, AND BENZOLACTAM BORONIC ACID COMPOUNDS, ANALOGS THEREOF AND METHODS OF USE THEREOF” (Nuada, Inc., priority 2004, published 2009).

What was measured:
Protein kinase C = Protein kinase C enzyme assay; format: biochemical, rat; details: 1.0E−05 M
ATPase (Na^+/K^+) = molecular target: T1, ATPase (Na^+/K^+) (Canis lupus familiaris, UniProt P50997); assay: ATPase (Na^+/K^+) enzyme assay; format: biochemical, dog; details: 1.0E−05 M
T1 construct: dog kidney; from tissue; host or cells: dog kidney

Phosphodiesterase 1 = Phosphodiesterase 1 enzyme assay; format: biochemical, bovine; details: 1.0E−05 M
Glucocorticoid(h) (GR) = molecular target: T2, Glucocorticoid(h) (GR) (Homo sapiens, UniProt P04150); assay: Glucocorticoid(h) (GR) binding assay; details: 1.0E−05 M; read-out: % Inhibition of Control Specific Binding
T2 construct: Glucocorticoid(h); IM-9 cells; dexamethasone; Clark et al. (1996); endogenous in cells; host or cells: IM-9 cells (cytosol)

H2(h) = molecular target: T3, H2(h) (Homo sapiens, UniProt P25021); assay: H2(h) binding assay; details: read-out: % Inhibition of Control Specific Binding
T3 construct: expressed in transfected cells; host or cells: CHO cells

AMPA = AMPA binding assay; parameters: species or system rat; details: 1.0E−05 M
NK3(h) = molecular target: T4, NK3(h) (Homo sapiens, UniProt P29371); assay: NK3(h) binding assay; details: read-out: % Inhibition of Control Specific Binding
T4 construct: expressed in transfected cells; host or cells: CHO cells

CCKB(h) (CCK2) = molecular target: T5, CCKB(h) (CCK2) (Homo sapiens, UniProt P32239); assay: CCKB(h) (CCK2) binding assay; details: read-out: % Inhibition of Control Specific Binding
T5 construct: expressed in transfected cells; host or cells: HEK-293 cells

GABA transporter = GABA transporter (Rattus norvegicus, UniProt P23978); assay: GABA transporter binding assay; details: 1.0E−05 M; read-out: % Inhibition of Control Specific Binding
A2A(h) = molecular target: T6, A2A(h) (Homo sapiens, UniProt P29274); assay: A2A(h) binding assay; details: 1.0E−05 M
T6 construct: expressed in transfected cells; host or cells: HEK-293 cells

CB1(h) = molecular target: T7, CB1(h) (Homo sapiens, UniProt P21554); assay: CB1(h) binding assay; details: 1.0E−05 M; read-out: % Inhibition of Control Specific Binding
T7 construct: expressed in transfected cells; host or cells: HEK-293 cells

α2 (non-selective) = α2 (non-selective) binding assay; parameters: species or system rat; details: 1.0E−05 M
Guanylyl cyclase (basal) = molecular target: T8, Guanylyl cyclase (basal) (Bos taurus, UniProt P16068+P19687); assay: Guanylyl cyclase (basal) enzyme assay; format: biochemical, bovine; details: 1.0E−05 M
T8 construct: bovine lung; from tissue; host or cells: bovine lung

B1(h) = molecular target: T9, B1(h) (Homo sapiens, UniProt P46663); assay: B1(h) binding assay; details: 1.0E−05 M; read-out: % Inhibition of Control Specific Binding
T9 construct: expressed in transfected cells; host or cells: CHO cells

NK2(h) = molecular target: T10, NK2(h) (Homo sapiens, UniProt P21452); assay: NK2(h) binding assay; details: 1.0E−05 M; read-out: % Inhibition of Control Specific Binding
T10 construct: expressed in transfected cells; host or cells: CHO cells

D4.4(h) = D4.4(h) (Homo sapiens, UniProt P21917); assay: biochemical; details: 1.0E−05 M; read-out: % Inhibition of Control Specific Binding
β2(h) = molecular target: T11, β2(h) (Homo sapiens, UniProt P07550); assay: β2(h) binding assay; details: read-out: % Inhibition of Control Specific Binding
T11 construct: expressed in transfected cells; host or cells: Sf9 cells

TRH = TRH binding assay; parameters: species or system rat; details: 1.0E−05 M
P2Y = P2Y binding assay; parameters: species or system rat; details: 1.0E−05 M
A3(h) = molecular target: T12, A3(h) (Homo sapiens, UniProt P0DMS8); assay: A3(h) binding assay; details: read-out: % Inhibition of Control Specific Binding
T12 construct: expressed in transfected cells; host or cells: HEK-293 cells

BZD (central) = BZD (central) binding assay; parameters: species or system rat; details: 1.0E−05 M
[1] = molecular target: Ca^2+ channel (L, DHP site) (Rattus norvegicus, UniProt P22002); assay: Ca^2+ channel (L, DHP site) binding assay; details: read-out: % Inhibition of Control Specific Binding
GABA (non-selective) = format: binding, rat; details: 1.0E−05 M
HERG channel = HERG channel (Homo sapiens, UniProt Q12809); assay: ADME-Tox: QT Prolongation, HERG (patch-clamp)
hERG = hERG (Homo sapiens, UniProt Q12809); assay: ADME-Tox: QT Prolongation, HERG (patch-clamp); details: human, HEK-293 cells stably expressing HERG
CCKA(h) (CCK1) = molecular target: T13, CCKA(h) (CCK1) (Homo sapiens, UniProt P32238); assay: CCKA(h) (CCK1) binding assay; details: read-out: % Inhibition of Control Specific Binding
T13 construct: expressed in transfected cells; host or cells: CHO cells
T13 sequence (P32238 whole entry): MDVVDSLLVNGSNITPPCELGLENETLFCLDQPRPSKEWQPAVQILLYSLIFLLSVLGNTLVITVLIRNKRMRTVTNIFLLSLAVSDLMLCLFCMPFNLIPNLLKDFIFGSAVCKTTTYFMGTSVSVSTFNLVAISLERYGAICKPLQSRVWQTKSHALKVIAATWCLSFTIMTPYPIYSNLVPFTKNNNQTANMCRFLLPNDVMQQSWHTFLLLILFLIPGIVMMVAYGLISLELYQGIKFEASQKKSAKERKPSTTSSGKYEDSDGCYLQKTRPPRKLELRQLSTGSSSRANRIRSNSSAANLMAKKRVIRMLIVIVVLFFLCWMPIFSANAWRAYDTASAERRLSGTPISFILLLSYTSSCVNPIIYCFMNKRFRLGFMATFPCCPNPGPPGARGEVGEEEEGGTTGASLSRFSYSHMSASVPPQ

Chain of HERG channel (Q12809 whole entry): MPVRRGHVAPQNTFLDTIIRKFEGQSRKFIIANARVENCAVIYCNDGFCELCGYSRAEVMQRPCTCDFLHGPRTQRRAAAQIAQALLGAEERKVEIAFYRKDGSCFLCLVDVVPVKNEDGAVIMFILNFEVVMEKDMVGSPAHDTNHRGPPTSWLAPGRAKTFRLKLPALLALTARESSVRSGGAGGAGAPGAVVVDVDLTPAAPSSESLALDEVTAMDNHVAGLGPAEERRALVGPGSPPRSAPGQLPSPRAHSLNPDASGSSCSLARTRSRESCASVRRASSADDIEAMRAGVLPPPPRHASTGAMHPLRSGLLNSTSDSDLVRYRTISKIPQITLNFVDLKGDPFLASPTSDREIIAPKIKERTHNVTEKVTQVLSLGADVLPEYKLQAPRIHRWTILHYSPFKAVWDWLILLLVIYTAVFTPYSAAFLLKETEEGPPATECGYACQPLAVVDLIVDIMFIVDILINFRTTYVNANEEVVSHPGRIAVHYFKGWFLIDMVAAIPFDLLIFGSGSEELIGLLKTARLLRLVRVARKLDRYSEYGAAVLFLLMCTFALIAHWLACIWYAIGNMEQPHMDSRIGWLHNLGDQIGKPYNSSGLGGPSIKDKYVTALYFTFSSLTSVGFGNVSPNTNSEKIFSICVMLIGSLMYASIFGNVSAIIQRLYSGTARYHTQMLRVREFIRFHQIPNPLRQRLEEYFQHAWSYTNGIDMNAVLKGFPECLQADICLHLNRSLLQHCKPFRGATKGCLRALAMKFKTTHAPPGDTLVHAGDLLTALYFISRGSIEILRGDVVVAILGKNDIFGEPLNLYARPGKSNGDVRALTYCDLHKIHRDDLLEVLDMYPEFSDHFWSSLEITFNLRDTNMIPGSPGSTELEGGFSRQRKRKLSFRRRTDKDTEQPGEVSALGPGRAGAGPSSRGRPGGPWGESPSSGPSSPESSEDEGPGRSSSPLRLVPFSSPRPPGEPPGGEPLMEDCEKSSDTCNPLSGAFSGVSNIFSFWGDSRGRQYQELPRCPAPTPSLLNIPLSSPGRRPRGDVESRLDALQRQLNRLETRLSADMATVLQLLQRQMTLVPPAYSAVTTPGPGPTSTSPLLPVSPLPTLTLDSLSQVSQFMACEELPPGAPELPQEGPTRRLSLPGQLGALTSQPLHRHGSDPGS
T2 sequence (P04150 whole entry): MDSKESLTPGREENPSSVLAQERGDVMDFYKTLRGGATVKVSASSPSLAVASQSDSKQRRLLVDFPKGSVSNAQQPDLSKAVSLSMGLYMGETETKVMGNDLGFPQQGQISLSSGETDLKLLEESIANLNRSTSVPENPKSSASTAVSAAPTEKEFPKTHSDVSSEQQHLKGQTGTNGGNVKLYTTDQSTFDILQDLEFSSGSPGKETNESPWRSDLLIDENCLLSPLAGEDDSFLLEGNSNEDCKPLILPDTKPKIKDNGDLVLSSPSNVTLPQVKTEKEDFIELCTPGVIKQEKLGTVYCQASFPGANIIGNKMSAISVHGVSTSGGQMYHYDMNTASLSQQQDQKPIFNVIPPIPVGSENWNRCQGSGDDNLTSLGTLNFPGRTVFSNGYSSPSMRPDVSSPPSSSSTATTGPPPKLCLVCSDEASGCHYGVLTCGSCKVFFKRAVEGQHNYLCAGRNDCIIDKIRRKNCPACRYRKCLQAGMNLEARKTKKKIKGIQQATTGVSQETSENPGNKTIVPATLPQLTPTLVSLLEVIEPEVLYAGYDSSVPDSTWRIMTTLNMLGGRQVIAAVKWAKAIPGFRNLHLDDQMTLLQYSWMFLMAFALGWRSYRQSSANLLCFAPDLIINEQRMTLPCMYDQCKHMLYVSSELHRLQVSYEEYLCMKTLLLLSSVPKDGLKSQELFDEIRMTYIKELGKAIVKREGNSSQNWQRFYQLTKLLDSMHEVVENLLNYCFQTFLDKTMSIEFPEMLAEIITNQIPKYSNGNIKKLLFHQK
T12 sequence (P0DMS8 whole entry): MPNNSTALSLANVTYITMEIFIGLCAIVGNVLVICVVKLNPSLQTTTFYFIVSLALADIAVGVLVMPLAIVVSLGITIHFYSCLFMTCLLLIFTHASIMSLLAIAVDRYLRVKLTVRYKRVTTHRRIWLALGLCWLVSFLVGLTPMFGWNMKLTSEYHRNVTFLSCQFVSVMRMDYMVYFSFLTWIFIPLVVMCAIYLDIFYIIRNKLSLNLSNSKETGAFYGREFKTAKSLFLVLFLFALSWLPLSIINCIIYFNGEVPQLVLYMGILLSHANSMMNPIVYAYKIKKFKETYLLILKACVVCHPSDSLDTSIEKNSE
T4 sequence (P29371 whole entry): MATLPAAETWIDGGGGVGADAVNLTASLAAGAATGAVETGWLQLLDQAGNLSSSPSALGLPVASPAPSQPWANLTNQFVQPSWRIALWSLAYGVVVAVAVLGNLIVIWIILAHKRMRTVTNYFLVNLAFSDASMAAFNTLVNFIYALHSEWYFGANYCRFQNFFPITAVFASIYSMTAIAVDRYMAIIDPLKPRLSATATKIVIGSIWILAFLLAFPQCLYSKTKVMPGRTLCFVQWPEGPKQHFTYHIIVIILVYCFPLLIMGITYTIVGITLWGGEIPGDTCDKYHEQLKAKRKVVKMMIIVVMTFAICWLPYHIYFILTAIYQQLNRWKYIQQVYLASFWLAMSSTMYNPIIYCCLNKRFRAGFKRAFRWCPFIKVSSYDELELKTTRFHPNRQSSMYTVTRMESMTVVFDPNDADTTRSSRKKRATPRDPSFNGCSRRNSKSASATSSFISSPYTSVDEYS
T7 sequence (P21554 whole entry): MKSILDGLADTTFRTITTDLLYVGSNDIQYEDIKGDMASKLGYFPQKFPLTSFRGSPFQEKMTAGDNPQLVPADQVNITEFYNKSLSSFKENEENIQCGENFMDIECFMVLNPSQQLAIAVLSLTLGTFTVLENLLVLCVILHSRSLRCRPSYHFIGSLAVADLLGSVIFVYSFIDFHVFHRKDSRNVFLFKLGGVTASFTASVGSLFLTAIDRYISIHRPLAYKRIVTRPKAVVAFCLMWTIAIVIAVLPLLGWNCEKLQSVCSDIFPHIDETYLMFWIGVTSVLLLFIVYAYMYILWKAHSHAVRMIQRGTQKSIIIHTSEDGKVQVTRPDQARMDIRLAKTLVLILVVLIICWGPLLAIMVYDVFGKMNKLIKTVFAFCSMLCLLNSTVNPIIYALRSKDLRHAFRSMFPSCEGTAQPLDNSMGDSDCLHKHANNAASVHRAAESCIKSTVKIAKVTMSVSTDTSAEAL
T8 sequence (P19687 whole entry): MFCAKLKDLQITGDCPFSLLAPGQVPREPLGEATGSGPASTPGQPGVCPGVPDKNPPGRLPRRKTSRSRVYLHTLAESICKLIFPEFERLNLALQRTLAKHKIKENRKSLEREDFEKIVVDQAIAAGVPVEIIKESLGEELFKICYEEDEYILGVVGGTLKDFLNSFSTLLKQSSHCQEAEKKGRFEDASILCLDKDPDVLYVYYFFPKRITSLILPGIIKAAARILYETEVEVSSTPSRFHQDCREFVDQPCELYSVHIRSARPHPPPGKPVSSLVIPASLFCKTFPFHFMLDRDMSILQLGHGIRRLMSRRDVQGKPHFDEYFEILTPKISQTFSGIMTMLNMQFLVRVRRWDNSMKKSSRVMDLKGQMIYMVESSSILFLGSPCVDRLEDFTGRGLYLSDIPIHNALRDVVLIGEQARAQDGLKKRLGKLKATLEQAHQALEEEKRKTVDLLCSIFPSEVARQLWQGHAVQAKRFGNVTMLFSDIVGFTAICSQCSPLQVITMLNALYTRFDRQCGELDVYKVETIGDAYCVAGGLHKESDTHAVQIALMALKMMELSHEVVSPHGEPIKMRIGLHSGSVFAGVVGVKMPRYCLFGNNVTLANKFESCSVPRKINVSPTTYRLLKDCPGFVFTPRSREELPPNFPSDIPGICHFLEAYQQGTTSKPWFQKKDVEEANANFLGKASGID
T8 sequence (P16068 whole entry): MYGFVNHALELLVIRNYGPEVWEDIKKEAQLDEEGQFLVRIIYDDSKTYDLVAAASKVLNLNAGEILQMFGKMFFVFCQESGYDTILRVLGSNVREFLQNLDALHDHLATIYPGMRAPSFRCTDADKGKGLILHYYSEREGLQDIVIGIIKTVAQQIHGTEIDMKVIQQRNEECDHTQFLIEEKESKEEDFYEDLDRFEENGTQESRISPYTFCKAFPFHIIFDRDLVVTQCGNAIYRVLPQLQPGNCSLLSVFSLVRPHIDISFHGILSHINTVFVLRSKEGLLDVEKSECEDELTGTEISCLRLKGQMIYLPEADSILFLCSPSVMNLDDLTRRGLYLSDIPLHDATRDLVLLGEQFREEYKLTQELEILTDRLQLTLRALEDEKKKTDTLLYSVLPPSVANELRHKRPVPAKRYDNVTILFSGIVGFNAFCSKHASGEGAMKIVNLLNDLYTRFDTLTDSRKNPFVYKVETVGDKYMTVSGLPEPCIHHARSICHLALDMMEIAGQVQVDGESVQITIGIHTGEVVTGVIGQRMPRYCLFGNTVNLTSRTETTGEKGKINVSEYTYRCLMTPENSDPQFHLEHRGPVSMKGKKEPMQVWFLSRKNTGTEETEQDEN

SMILES: N#Cc1ccc2c(ccn2CCCCCB(O)O)c1 [Example 20, 5-(5-cyano-1H-indol-1-yl)pentylboronic acid]
- % Inhibition of Control Values (Protein kinase C): 0%
- % Inhibition of Control Values (ATPase (Na^+/K^+)): 8%
- % Inhibition of Control Values (Phosphodiesterase 1): 7%
- inhibition at 10 µM (Glucocorticoid(h) (GR)): -7%
- inhibition at 10 µM (H2(h)): 15%
- % Inhibition of Control Specific Binding (AMPA): −3%
- inhibition at 10 µM (NK3(h)): 3%
- inhibition at 10 µM (CCKB(h) (CCK2)): 5%
- inhibition at 10 µM (GABA transporter): -13%
- % Inhibition of Control Specific Binding (A2A(h)): 16%
- inhibition at 10 µM (CB1(h)): -2%
- % Inhibition of Control Specific Binding (α2 (non-selective)): 7%
- % Stimulation Relative to Control (Guanylyl cyclase (basal)): 0%
- inhibition at 10 µM (B1(h)): -5%
- inhibition at 10 µM (NK2(h)): -2%
- inhibition at 10 µM (D4.4(h)): 1%
- inhibition at 10 µM (β2(h)): 5%
- % Inhibition of Control Specific Binding (TRH): −17%
- % Inhibition of Control Specific Binding (P2Y): −19%
- inhibition at 10 µM (A3(h)): -12%
- % Inhibition of Control Specific Binding (BZD (central)): 18%
- inhibition at 10 µM [1]: -10%
- % Inhibition of Control Specific Binding (GABA (non-selective)): −15%
- Potency Ranking (HERG channel; HERG-channel blocker ranking, from 1 μM test (Table 17)): Moderate (Moderate, 1 μM<IC50<10 μM)
- HERG-channel blocker potency class (HERG channel; general potency ranking system (Roche et al.)): moderate
- inhibition at 1 µM (hERG): 31.1%
- inhibition at 10 µM (CCKA(h) (CCK1)): 7%
